According to US7488583B2, “Fragment complementation assays for G-protein-coupled receptors and their signaling pathways” (Odyssey Thera, Inc., priority 2003, dated 2009):
Entries after “also recorded” stand apart in the source; their conditions may differ. Non-standard residues stand in square brackets, D forms with d. Residues, ends and D or L forms follow the SMILES beside them. *: point of attachment. Nle = CCCC[C@H](N)C(=O)O; Cbz = O=C(OCc1ccccc1)*

Legend:
[1] = test system: association of beta-arrestin2 and ubiquitin; assay: beta-arrestin2/ubiquitin PCA (ubiquitination of beta-arrestin2); format: cell-based; conditions: for beta-arrestin2/ubiquitin assay fluorescence, positive pixel mean (PPM) as percent of control (FIG. 12): versus negative control (vehicle alone)
From the text: To illustrate another example of a novel assay constructed using the methods provided herein, we developed a protein-fragment complementation assay to measure the association of beta-arrestin2 and ubiquitin (see FIGS. 11-12) using the methods described here. Ubiquitin is a highly conserved 76-amino acid polypeptide. Since its discovery in the mid-1970s, ubiquitin has been associated with cellular house-keeping functions such as eliminating damaged proteins. It has recently become clear that ubiquitin is involved in a variety of other vital processes at different subcellular locations ranging from the plasma membrane to the nucleus, including cell-cycle progression, signal transduction, transcriptional regulation, receptor down-regulation, and endocytosis. Ubiquitin is covalently attached to proteins through an isopeptide bond between its carboxy-terminal glycine and the epsilon-amino group of lysines in the target protein. This attachment is catalyzed by enzymes that activate and ultimately conjugate the ubiquitin moiety to a lysine residue in the substrate. This can be followed by further additions of ubiquitin to specific lysine residues within the linked ubiquitin itself, resulting in a poly-ubiquitin chain. This covalent modification can be reversed by unique proteases specific for the iso-peptide linkage. Although ubiquitin is the best-characterized polypeptide modifier, other polypeptides (often referred to as Ubiquitin-like, or Ubl) are also conjugated to targets in analogous reactions. These ‘alternative’ modifiers, which differ from ubiquitin in sequence similarity but which are structurally similar to ubiquitin, include SUMO; Nedd8; Hub 1, ISG15 or UCRP; and Apg 12 (reviewed in Aguilar).
Previously, assays for ubiquitination have relied upon immunoblotting of proteins with anti-ubiquitin antibodies, or on labelling of proteins with a fluorophore-tagged ubiquitin polypeptide. […] FIGS. 11-12 show the results of the transient transfection of the PCA constructs. […] Since the process of ubiquitination targets proteins for degradation, we used ALLN (see Table 3 for concentration) to inhibit the proteasome activity of the cell in order to ensure that the arrestin/ubiquitin complex would accumulate in the cells and be detectable. […] The effects of Trichostatin A are particularly interesting in light of recent findings linking HDAC inhibition with the attenuation of cardiac hypertrophy induced by isoproterenol or by overexpression of proteins linked to cardiac growth and proliferation (Cardiac hypertrophy and histone deacetylase-dependent transcriptional repression mediated by the atypical homeodomain protein Hop; H. Kook, et al., J Clin Invest. 2003 September; 112(6):863-71). […]

[2] = target: T1, interaction of the beta-adrenergic receptor with beta-arrestin2 (Homo sapiens, UniProt P07550); format: cell-based; conditions: HEK293T stable line, 480 minutes, concentrations of Table 3
T1 construct: (Gly-Gly-Gly-Gly-Ser)2 linker between receptor and YFP[2]; YFP[2]; (EYFP amino acids 159-239); expressed in transfected cells
Procedure: For the betaARR2/beta2AR, stable cell lines were generated.
Drug concentrations initially were chosen based on literature references and were further refined to ensure lack of toxicity in HEK293 cells, based on lactate dehydrogenase (LDH) toxicity analyses. All liquid handling steps were performed using the Biomek FX platform (Beckman Instruments, Fullerton, Calif.). Cells expressing the betaARR2/beta2AR PCA were incubated in cell culture medium containing drugs for 30 min., 90 min., and 8 hours. […] Cells were subsequently rinsed with HBSS (Invitrogen) and maintained in the same buffer during image acquisition. […] All treatment conditions were run in duplicate yielding a total of 8 images for each wavelength and treatment condition.
For these high-content assays, image analysis is needed to convert the acquired images into fluorescence intensity and, if desired, to resolve the subcellular distribution of the fluorescence signal. […] Raw images in 16-bit grayscale TIFF format were analyzed using ImageJ API/library as described in the literature. […] Next a threshold was established to separate the foreground from background. An iterative algorithm based on Particle Analyzer from ImageJ was applied to the thresholded Hoechst channel image (HI) to obtain the total cell count. The nuclear region of a cell (nuclear mask) was also derived from the thresholded HI. A WGA mask was generated similarly from the thresholded Texas Red image. […] To calculate the global background (gBG), a histogram was obtained from the un-thresholded YI and the pixel intensity of the lowest intensity peak was identified as gBG. […] The mean pixel intensity for all positive particles within each defined sub-region was calculated, resulting in 4 parameters: total positive pixel mean (MT, the mean intensity of the total particle fluorescence); Hoechst mean (M1, the mean intensity of the Hoechst defined region); Texas Red mean (M2, the mean intensity of the WGA-defined region); and Subtracted mean (M3, the mean intensity of the pixels excluded from the WGA- and Hoechst-defined regions). All means were corrected for the corresponding gBG.
For each set of experiments (assay+drug treatment+treatment time), positive pixel data from eight images were pooled. For each parameter, an outlier filter was applied to filter out those particles falling outside the range (mean±3SD) of the group. Next the sample mean or control mean for each parameter was obtained from each filtered group.

Molecule | beta-arrestin2/ubiquitin assay fluorescence, positive pixel mean (PPM) as percent of control (FIG. 12) [1] | fluorescence intensity of the YFP channel as percent of control, later time points (FIG. 10) [2] | further results
CCCC[C@@H](C=O)NC(=O)[C@H](CC(C)C)NC(=O)[C@H](CC(C)C)NC(C)=O [ALLN] (Ac-Leu-Leu-[Nle]-aldehyde) |  |  | beta-arrestin2/ubiquitin PCA signal with proteasome inhibitor (FIG. 11) ([1]; transient transfection, absence of isoproterenol, ALLN at Table 3 concentration): clearly visible in the presence of ALLN; also recorded: Signal was apparent only in the presence
CC(C)NCC(O)c1ccc(O)c(O)c1 (stereo not drawn) [isoproterenol] |  |  | beta-arrestin2/ubiquitin PCA fluorescence intensity after agonist (FIG. 11) ([1]; in the presence of ALLN, 60-120 minutes): caused a significant increase in fluorescence intensity; also recorded: caused a significant increase in signal
CC(/C=C/C(=O)NO)=C\[C@@H](C)C(=O)c1ccc(N(C)C)cc1 [Trichostatin A] | significantly increased the assay signal; also recorded: increased the signal fourfold |  | 
Cc1ccc(S(=O)(=O)/C=C/C#N)cc1 [BAY 11-7082] |  | had effects only at later time points | 
CC(C)C[C@@H](C=O)NC(=O)[C@H](CC(C)C)NC(=O)[C@H](CC(C)C)NC(=O)OCc1ccccc1 [MG132] (Cbz-Leu-Leu-Leu-aldehyde) | significantly increased the assay signal; also recorded: increased the signal fourfold |  | 
pertussis toxin |  | had effects only at later time points | 
